ChEMBL document CHEMBL1151823, “5-Bromo-8-methoxy-1-methyl-beta-carboline, an alkaloid from the New Zealand marine bryozoan Pterocella vesiculosa” (J Nat Prod, 2009)
In brackets after ≈: the same amount, converted by molar mass.

Legend:
P388 = experiment: Cytotoxicity against mouse P388 cells; type: functional, cell-based
Bacillus subtilis = experiment: Antimicrobial activity against Bacillus subtilis measured per disk; type: functional
Candida albicans = experiment: Antimicrobial activity against Candida albicans measured per disk; type: functional
[1] = system: Trichophyton mentagrophytes; experiment: Antimicrobial activity against Trichophyton mentagrophytes measured per disk; type: functional

## C=Cc1[nH]ccc2c3ccccc3nc1-2
P388
  IC50: 0.1 µg/mL (≈ 0.515 µM)
Bacillus subtilis
  MID: 1.9 µg/mL
Candida albicans
  MID: 1.9 µg/mL
[1]
  MID: 0.1 µg/mL

## CCc1nccc2c1[nH]c1ccccc12
P388
  IC50: > 12.5 µg/mL
Bacillus subtilis
  MID: 7.5 µg/mL
Candida albicans
  MID: 1.9 µg/mL
[1]
  MID: 1.9 µg/mL

## C=Cc1nccc2c1[nH]c1c(O)cccc12
P388
  IC50: 0.1 µg/mL (≈ 0.476 µM)
Bacillus subtilis
  MID: 7.5 µg/mL
Candida albicans
  MID: 15 µg/mL
[1]
  MID: 0.45 µg/mL

## C=Cc1nccc2c1[nH]c1c(OC)cccc12
P388
  IC50: 0.1 µg/mL (≈ 0.446 µM)
Bacillus subtilis
  MID: 7.5 µg/mL
Candida albicans
  MID: 15 µg/mL
[1]
  MID: 0.45 µg/mL

## COc1ccc(Br)c2c1[nH]c1c(C)nccc12
P388
  IC50: 5.09 µg/mL (≈ 17.5 µM)
Bacillus subtilis
  MID: 2 µg/mL
Candida albicans
  MID: 7.5 µg/mL
[1]
  MID: 7.5 µg/mL

## CCc1nccc2c1[nH]c1c(O)cccc12
P388
  IC50: > 12.5 µg/mL
Bacillus subtilis
  MID: 30 µg/mL
Candida albicans
  MID: 30 µg/mL
[1]
  MID: 30 µg/mL

## CCc1nccc2c1[nH]c1c(OC)cccc12
P388
  IC50: > 12.5 µg/mL
Bacillus subtilis
  MID: >60 µg/mL
Candida albicans
  MID: 7.5 µg/mL
[1]
  MID: 7.5 µg/mL

## C=Cc1nccc2c1[nH]c1c(OC(C)=O)cccc12
P388
  IC50: 0.65 µg/mL (≈ 2.58 µM)

## Cc1nccc2c1[nH]c1ccccc12 [HARMAN]
P388
  IC50: > 12.5 µg/mL
Bacillus subtilis
  MID: 7.5 µg/mL
Candida albicans
  MID: 1.9 µg/mL
[1]
  MID: 3.7 µg/mL
